{"source": "paper PMC9296036", "about": "“A peptide interfering with the dimerization of oncogenic KITENIN protein and its stability suppresses colorectal tumour progression” (Clinical and Translational Medicine, 2022)", "system": "Caco2/KITENIN-V5 cells", "test": "Autophagosome staining (Cyto-ID) in Caco2/KITENIN-V5 cells", "type": "cell-based", "details": "KDIP 5 μM, similar to rapamycin positive control", "experimental": "To test whether KDIP induces autophagy in KITENIN‐expressing Caco2 cells, cells were grown on coverslips for 24 h. Cells were washed with PBS and then stained with Cyto‐ID green fluorescence reagents (Enzo Life Sciences, Plymouth Meeting, PA) for 1 h at 37°C in a cell culture incubator. Cells were washed with PBS and mounted with […] mounting medium containing nuclear DAPI (Vector Lab). Cells were imaged by confocal microscope.\nFIGURE 3 RACK1 binds to KAI1 C‐terminal interacting tetraspanin (KITENIN) and KITENIN dimerization‐interfering peptide (KDIP) stimulates the degradation of KITENIN by inducing increased binding of RACK1 to KITENIN. (A) RACK1 specifically binds to KITENIN. Caco2/KITENIN‐V5 cells were transfected with RACK1‐GFP for 48 h, immunoprecipitated with anti‐GFP antibody and immunoblotted with anti‐V5 antibody to detect KITENIN bound with RACK1 (left panel). […] The proteins in whole‐cell lysate (WCL) were detected with the indicated antibody. […] Caco2 cells were transfected with KITENIN‐V5 and/or RACK1‐GFP (left) or KITENIN‐V5 and/or si‐RACK1 (right), and their expression after treatment with KDIP (1 μM, 24 h) was detected with the indicated antibody (upper) or subjected to invasion assay (lower). […] Caco2/KITENIN‐V5 cells were treated with KDIP for 24 h and assessed by immunoblot analyses using an anti‐KITENIN, an anti‐p62, or an anti‐LC3B antibody (left panel). […]", "note": "Ends that are not written are not given here."}
{"sequence": "YARVRRRGPRRWRLVSDEAV [KDIP]", "values": [{"measurement": "formation of the autophagosome (in words)", "value": "increased"}]}
